In test [1] the test system is lymph node and spleen of AD-induced mice. Briefly: DNCB-induced AD model, lymph node and spleen weight and size. As to conditions: for weight and size of spleen: compared to AD-induced mice, p < 0.05 for weight; for decrease in both weight and size of lymph node: compared to untreated AD-mice. Type of test: in vivo, BALB/c mice. The procedure: (§1) As described in our previous article, the 7-week-old female BALB/c mice were divided into seven groups (n = 8 per group): Control (Con) group, TZP3 200 μg/mL (TZP3) group, and TZP5 200 μg/mL (TZP5) group, DNCB-sensitized only (AD) group, DNCB-sensitized + TZP3 200 μg/mL (AD + TZP3) group, DNCB-sensitized + TZP5 200 μg/mL (AD + TZP5) group, DNCB-sensitized + Dermatop (Sanofi, Korea) 0.25% (AD + Dermatop) group. Dermatop was used as a positive control treatment. For the first induction of AD in the BALB/c mice, the backs of the mice were shaved and challenged with 200 μL of 1% 2,4-dinitrochlorobenzene(DNCB) in acetone/olive oil (3:1) one time (day−4). After 4 days from the induction, 0.5% DNCB was painted onto the backs of the mice every two days (day 2, 4, 6, 8, 10, 12, 14, 16 and 18). Concentrations of 200 μg/mL TZP3 or TZP5 in 20 μL of PBS were applied to the dorsal skin once daily for 18 days.

Test [2] deals with TGF-β, TNF-α, iNOS, COX-2 protein in dorsal tissue. Briefly: DNCB-induced AD model, western blot of inflammatory mediators. Type of test: in vivo, BALB/c mice. As to conditions: versus AD mice. The procedure: as §1
Frozen skins from the mice were homogenized in liquid nitrogen. For the western blot analysis, the tissues were lysed in a RIPA lysis buffer(Sigma) containing 1% protease inhibitor. The cell lysates were incubated on ice for 1 h and then the homogenates were centrifuged at 13000 rpm for 20 min at 4 °C. […] The antibody-specific proteins were visualized with enhanced chemiluminescence (ECL) detection reagent and quantified using the ImageJ software. […]

In test [3] the test system is Escherichia coli (KCTC 1682). Briefly: Antimicrobial activity, broth microdilution MIC. Format: cell-based. Particulars: 2 × 10^6 CFU/mL in 1% peptone, 37 °C, 18–22 h, 100% inhibition of growth, performed three times. The protocol: (§2) The bacterial strains employed in the experiment were Escherichia coli (KCTC 1682), Pseudomonas aeruginosa (KCTC 1637), Bacillus subtilis (KCTC 3068), Staphylococcus aureus (KCTC 1621), three methicillin-resistant Staphylococcus aureus (CCARM 3089, 3090 and 3095), two multidrug-resistant Pseudomonas aeruginosa (CCARM 2095 and 2109) and vancomycin-resistant Enterococcus faecium (ATCC 51559). The antimicrobial activities of polymers were determined by the broth microdilution method, and the procedures were used as previously reported. Briefly, bacteria grown to mid-logarithmic phase in LB broth were diluted to 2 × 10^6 CFU/mL in 1% peptone and added to serial two-fold dilutions of different polymers ranging from 1 to 64 μg/mL. The plates were incubated in a shaking incubator at 37 °C for 18–22 h. The minimum inhibitory concentration (MIC) was determined by confirming the absence of bacterial growth both visually and spectrophotometrically by OD600 readings taken by a microplate ELISA reader (Molecular Devices, Sunnyvale, CA, USA). All measurements were performed three times.
(In general: In broth dilution the organism is exposed to a series of concentrations in liquid medium.)

Test [4] relates to Bacillus subtilis (KCTC 3068). Briefly: Antimicrobial activity, broth microdilution MIC. Type of test: cell-based. As to conditions: 2 × 10^6 CFU/mL in 1% peptone, 37 °C, 18–22 h, 100% inhibition of growth, performed three times. The protocol:
as §2

Test [5] relates to Pseudomonas aeruginosa (KCTC 1637). Briefly: Antimicrobial activity, broth microdilution MIC. Format: cell-based. Particulars: 2 × 10^6 CFU/mL in 1% peptone, 37 °C, 18–22 h, 100% inhibition of growth, performed three times. The procedure:
as §2

Test [6] has as its system Staphylococcus aureus (KCTC 1621). Briefly: Antimicrobial activity, broth microdilution MIC. Format: cell-based. Particulars: 2 × 10^6 CFU/mL in 1% peptone, 37 °C, 18–22 h, 100% inhibition of growth, performed three times. The procedure: as §2
For test [7], the system named is β-hexosaminidase release from RBL-2H3 cells. Briefly: β-hexosaminidase release assay. As to conditions: 500 μg/mL, 12 h treatment, A23187 1 μM 30 min, dose-dependent. Type of test: cell-based, rat. The protocol:
The β-hexosaminidase assay was performed as described previously with some modifications. Cells were treated with different concentrations of samples for 12 h. The treated cells were washed two times with PBS and stimulated with calcium ionophore A23187 (1 μM, final concentration) at 37 °C for 30 min. Aliquots (50 μL) of the supernatants were incubated with 50 μL of 1 mM 4-nitrophenyl-N-acetyl-β-D-glucosaminide in 0.1 M sodium citrate (pH 4.5) at 37 °C for 1 h. At the end of incubation, 250 μL of carbonate buffer containing 0.1 M Na2CO3 and 0.1 M NaHCO3 (pH 10) was added, and then the absorbance due to the formation of p-nitrophenol was measured at 410 nm. The supernatant from the non-stimulated cells was used as a blank while the supernatant from the stimulated cells with calcium ionophore A23187 alone was used as a control. The β-hexosaminidase release levels were calculated as a percentage compared to that of control: β-hexosaminidase release (%) = (absorbance of tested sample− absorbance of blank)/(absorbance of control-absorbance of blank) × 100.
Effect of TZP3 and TZP5 on TNF-α suppression
Therefore, the dimer TZP3 and trimer TZP5 were probed for their potential for inhibiting the TNF-α induced from RBL-2H3 cells in in vitro method.
Calcium ionophore A23187 and PMA induced the TNF-α secretion in RBL-2H3 cells, on the contrary, treatment of which with TZP3 and TZP5
Figure S1. […]

As to `NCCCN(CCCN)c1nc(N)nc(NCCNc2nc(Cl)nc(N(Cc3ccccc3)Cc3ccccc3)n2)n1` [TZP3], in test [1], the “weight and size of spleen” value was “significant decrease”; the “decrease in both weight and size of lymph node” value is given as “more than 35%”. Moreover, the “protein expressions (TGF-β, TNF-α, iNOS, COX-2) in dorsal tissue” value in test [2] was “significant decrease”. In test [3], the “MIC Escherichia coli (KCTC 1682)” value is 4 [6.8] μg/mL. Also, the “MIC Bacillus subtilis (KCTC 3068)” value in test [4] was 2 [3.4] μg/mL. Besides, in test [5], the “MIC Pseudomonas aeruginosa (KCTC 1637)” value is 8 [13.5] μg/mL. Besides, the “MIC Staphylococcus aureus (KCTC 1621)” value in test [6] is 4 [6.8] μg/mL. Further, the “inhibition of β-hexosaminidase release” value in test [7] was “maximum inhibitory effects”.
As to `NCCCN(CCCN)c1nc(Cl)nc(NCCNc2nc(NCCNc3nc(N)nc(NCCC(c4ccccc4)c4ccccc4)n3)nc(N(CCCN)CCCN)n2)n1` [TZP5], in test [1], the “weight and size of spleen” value is “significant decrease”; the “decrease in both weight and size of lymph node” value is recorded as “more than 35%”. The “protein expressions (TGF-β, TNF-α, iNOS, COX-2) in dorsal tissue” value in test [2] was “significant decrease”. Further, the “MIC Escherichia coli (KCTC 1682)” value in test [3] was 4 [3] μg/mL. Besides, the “MIC Bacillus subtilis (KCTC 3068)” value in test [4] is 2 [1.5] μg/mL. For the same molecule, the “MIC Pseudomonas aeruginosa (KCTC 1637)” value in test [5] was 4 [3] μg/mL. Moreover, the “MIC Staphylococcus aureus (KCTC 1621)” value in test [6] was 4 [3] μg/mL. The “inhibition of β-hexosaminidase release” value in test [7] is “maximum inhibitory effects”.

Values taken from paper PMC6805867, “Amphiphilic Triazine Polymer Derivatives as Antibacterial And Anti-atopic Agents in Mice Model” (Scientific Reports, 2019).
